{
  "source": "paper PMC3479356",
  "about": "(ChemMedChem, 2012)",
  "key": {"[1]": {"target": "T1, recombinant human RXR receptor (Homo sapiens, UniProt P19793)", "T1 sequence (P19793 1-462) 1": "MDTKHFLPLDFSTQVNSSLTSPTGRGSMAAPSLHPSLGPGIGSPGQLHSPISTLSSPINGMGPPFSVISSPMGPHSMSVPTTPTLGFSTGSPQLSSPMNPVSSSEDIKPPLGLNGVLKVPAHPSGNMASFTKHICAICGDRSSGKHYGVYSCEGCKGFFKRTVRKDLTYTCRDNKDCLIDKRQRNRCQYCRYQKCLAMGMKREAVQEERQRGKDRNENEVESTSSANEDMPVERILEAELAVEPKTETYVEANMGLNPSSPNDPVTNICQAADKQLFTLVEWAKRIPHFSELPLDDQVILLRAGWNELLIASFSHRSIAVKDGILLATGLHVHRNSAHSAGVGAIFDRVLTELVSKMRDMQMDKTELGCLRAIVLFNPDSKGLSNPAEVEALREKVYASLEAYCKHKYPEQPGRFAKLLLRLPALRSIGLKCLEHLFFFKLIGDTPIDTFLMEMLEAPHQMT", "T1 sequence (P19793 1-462) 2": "T1 sequence (P19793 1-462) 1", "assay": "RXR mammalian two-hybrid assay"}, "RXR": {"test_system": "RXR", "conditions": "Caco-2 colon cancer cells; cited from earlier work"}, "human RXRα": {"target": "T2, human RXRα (Homo sapiens, UniProt P19793)", "T2 sequence (P19793 1-462)": "T1 sequence (P19793 1-462) 1", "assay": "RXRE-mediated transcription assay", "format": "cell-based", "conditions": "10^−7 M, 24 h"}},
  "note": "Read-outs that look alike come from different tables or passages of the source.",
  "data": [
    {"smiles": "C=C(c1ccc(C(=O)O)c(I)c1)c1cc2c(cc1C)C(C)(C)CCC2(C)C", "note": "[Analog 16, 2-Iodo-4-(1-(1,2,3,4-tetrahydro-1,1,4,4,6-pentamethylnaphthalen-7-yl)vinyl)benzoic acid]", "values": [
      {"measurement": "EC50", "setting": "[1]", "value": 0.28, "unit": "µM"},
      {"measurement": "RXR binding and homodimerization, % of the parent compound 1 efficiency", "setting": "[1]; 10^−7 M, 24 h, independent of the cell line (Caco-2 and HCT-116)", "value": "~20", "unit": "%"}
    ]},
    {"smiles": "C=C(c1ccc(C(=O)O)c(F)c1)c1cc2c(cc1C)C(C)(C)CCC2(C)C", "note": "[Compound 11, 2-fluoro-4-(1-(1,2,3,4-tetrahydro-1,1,4,4,6-pentamethylnaphthalen-7-yl)vinyl)benzoic acid]", "values": [
      {"measurement": "RXR activation compared with 1", "setting": "RXR", "value": "slightly higher RXR activation"}
    ]},
    {"smiles": "Cc1cc2c(cc1C(=O)c1ccc(C(=O)O)c(I)c1)C(C)(C)CCC2(C)C", "note": "[Compound 17, 2-Iodo-4-(1-(3,5,5,8,8-pentamethyl-5,6,7,8-tetrahydronaphthalen-2-yl)carbonyl)benzoic acid]", "values": [
      {"measurement": "RXR homodimer-mediated transcription compared with ethanol vehicle", "setting": "human RXRα; Caco-2 cells", "value": "not able to activate transcription"},
      {"measurement": "RXR homodimer-mediated transcription compared with ethanol vehicle", "setting": "human RXRα; HCT-116 cells", "value": "significant activity"}
    ]},
    {"smiles": "C=C(c1ccc(C(=O)O)c(Cl)c1)c1cc2c(cc1C)C(C)(C)CCC2(C)C", "note": "[Analog 12, 2-Chloro-4-(1-(1,2,3,4-tetrahydro-1,1,4,4,6-pentamethylnaphthalen-7-yl)vinyl)benzoic acid]", "values": [
      {"measurement": "EC50", "setting": "[1]", "value": 0.09, "unit": "µM"}
    ]},
    {"smiles": "Cc1cc2c(cc1C(=O)c1cc(F)c(C(=O)O)c(F)c1)C(C)(C)CCC2(C)C", "note": "[Analog 19, 2,6-Difluoro-4-(1-(3,5,5,8,8-pentamethyl-5,6,7,8-tetrahydronaphthalen-2-yl)carbonyl)benzoic acid]", "values": [
      {"measurement": "EC50", "setting": "[1]; read-out: EC50 value, transfected HCT-116 cells, full dose-response curves 10^−10 to 10^−5 M, ± S.D.", "value": 0.55, "unit": "µM"}
    ]},
    {"smiles": "C=C(c1ccc(C(=O)O)c(Br)c1)c1cc2c(cc1C)C(C)(C)CCC2(C)C", "note": "[Analog 14, 2-Bromo-4-(1-(1,2,3,4-tetrahydro-1,1,4,4,6-pentamethylnaphthalen-7-yl)vinyl)benzoic acid]", "values": [
      {"measurement": "EC50", "setting": "[1]", "value": 0.15, "unit": "µM"}
    ]},
    {"smiles": "C=C(c1cc(F)c(C(=O)O)c(F)c1)c1cc2c(cc1C)C(C)(C)CCC2(C)C", "note": "[Analog 18, 2,6-difluoro-4-(1-(1,2,3,4-tetrahydro-1,1,4,4,6-pentamethylnaphthalen-7-yl)vinyl)benzoic acid]", "values": [
      {"measurement": "RXR homodimer-mediated transcription compared with ethanol vehicle", "setting": "human RXRα; Caco-2 and HCT-116 cells", "value": "significantly better than that of the ethanol vehicle"}
    ]}
  ]
}
